The values below come from patent publication US20050209336A1, “EP2 receptor agonists” (priority 2003, published 2005).

Read-outs that look alike come from different tables or passages of the source.

The target of one assay is T1, human EP3 receptor (Homo sapiens, UniProt P43115).
T1 construct: expressed in transfected cells
T1 sequence (P43115 1-390): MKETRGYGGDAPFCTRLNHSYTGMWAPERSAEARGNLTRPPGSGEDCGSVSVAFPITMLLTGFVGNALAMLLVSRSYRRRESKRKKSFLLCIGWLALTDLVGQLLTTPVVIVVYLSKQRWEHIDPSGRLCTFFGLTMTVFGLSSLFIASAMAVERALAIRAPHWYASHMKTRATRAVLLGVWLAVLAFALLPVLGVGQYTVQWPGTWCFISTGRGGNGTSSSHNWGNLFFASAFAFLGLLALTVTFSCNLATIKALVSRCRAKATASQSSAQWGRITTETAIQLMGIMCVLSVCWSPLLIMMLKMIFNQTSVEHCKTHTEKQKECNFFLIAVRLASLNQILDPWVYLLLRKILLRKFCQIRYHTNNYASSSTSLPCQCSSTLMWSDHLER
The experiment in a line: Radioligand ([3H]PGE2) competition displacement binding, human EP3 receptor membranes. To be noted: [3H]PGE2 displacement, read-out: pKi EP3 (converted). The procedure: (§1) Membranes were prepared from cells stably transfected with human EP receptor cDNA. In brief, cells were cultured to confluency, scraped from culture flasks, and centrifuged (800 g, 8 minutes, 4° C.). Cells were twice washed in ice cold homogenisation buffer containing 10 mMTris-HCl, 1 mM EDTA.2Na, 250 mM sucrose, 1 mM PMSF, 0.3 mM indomethacin, pH 7.4, homogenised and re-centrifuged as before. The supernatant was stored on ice and pellets re-homogenised and re-spun. Supernatants were pooled and centrifuged at 40000 g, 10 minutes, 4° C. Resultant membrane pellets were stored at −80° C. until use.
(§2) For assay, membranes expressing human EP4, EP3, EP2 or EP1 receptors were incubated in Millipore (MHVBN45) plates containing assay buffer, radiolabelled [^3H]PGE2 and 0.1 to 10 000 nM concentrations of compounds. Incubations were performed at suitable temperatures and for suitable times to allow equilibrium to be reached. Non-specific binding was determined in the presence of 10 uM PGE2. Bound and free radiolabel was separated by vacuum manifold filtration using appropriate wash buffers, and bound radiolabel was determined by scintillation counting. Constituents of each of the buffers are included in table 4 below.
(§3) The affinity or pKi of each compound for each receptor was calculated from the concentration causing 50% radioligand displacement (IC50) using the Cheng-Prusoff equation: [formula]
(§4) This approach follows that set out in Kenakin, T. P., Pharmacologic analysis of drug receptor interaction. Raven Press, New York, 2nd edition.

In another assay the target is T2, human EP4 receptor (Homo sapiens, UniProt P35408).
T2 construct: expressed in transfected cells
The experiment in a line: Radioligand ([3H]PGE2) competition displacement binding, human EP4 receptor membranes. The conditions noted are these: [3H]PGE2 displacement, read-out: pKi EP4 (converted). The procedure: as §1, §2, §3, §4

Assay [1] has as its target T3, human EP2 receptor (Homo sapiens, UniProt P43116).
T3 construct: expressed in transfected cells; host or cells: HEK cells (HEK-EP2)
The assay is described as follows: Radioligand ([3H]PGE2) competition displacement binding, human EP2 receptor membranes. The conditions noted are these: human EP2 membranes, [3H]PGE2 displacement, Cheng-Prusoff; mean of 4 experiments; read-out: pKi EP2 (converted). The procedure: as §1, §2, §3, §4

For assay [2], the target named is T3, human EP2 receptor. The assay is described as follows: cAMP production in HEK cells stably expressing the human EP2 receptor. It counts as cell-based. To be noted: 15 min stimulation, 4 experiments, read-out: Mean EC50. The procedure:
The following describes an in vitro assay to determine the effect of compounds on cyclase production, that is, to determine their functional efficacy at the EP2 receptor.
HEK cells stably expressing the human EP2 receptor were used for these assays. HEK-EP2 cells were cultured in 96-well, poly-L-lysine coated plates at a density of 50,000 cells/well, and grown to confluence in humidified […] at 37° C. Culture medium was DMEM supplemented with 10% foetal bovine serum, 100 U/ml penicillin, […], 2.5 µg/ml fungizone, 2 mM glutamine, 250 µg/ml geneticin and 200 µg/ml zeocin.
On reaching confluence, culture media was rinsed off using DMEM with no additions, before 175 µl assay buffer (DMEM containing 1 mM 3-isobutyl-1-methylxanthine and 3 µM indomethacin) was added to each well. This was allowed to incubate for 1 hr before the cells were stimulated with the test compounds (in triplicate) at final concentrations of 10^−9M to 10^−5M for 15 minutes. The assay was terminated by the addition of 25 µl 1M hydrochloric acid. Plates were then frozen for a minimum of 12 hours or until required for radioligand displacement assay.
Plates were thawed quickly at 37° C., and neutralised with 25 µl 1M sodium hydroxide. 30 µl of supernatant was transferred to 96-well Millipore (MAFNOB) plates coated with 0.1% Polyethylenimine. These supernatants were diluted by addition of 90[…]1 cAMP assay buffer (50 mM Tris, 5 mM EDTA, pH 7.0). A cAMP standard curve (10^−11M to 10^−5M) was constructed. 15 µl of 3′:5′-cAMP-dependent protein kinase (final concentration 8 µg/well), and 15 µl [^3H]-cAMP (final concentration 2 nM/well) were added to each well.
Plates were incubated on ice for 2 hours, before bound and free radiolabel were separated by vacuum filtration harvesting on the Millipore manifold, using ice cold water as the termination buffer. Filter plates were allowed to dry overnight, before addition of 50 µl Microscint. Radioactivity was determined using the Microbeta Trilux scintillation counter. cAMP accumulation was determined from the standard curve, and the values plotted as pmoles cAMP/well.
(Cyclic AMP is a second messenger, typically raised through Gs and lowered through Gi signalling.)

In assay [3] the test system is IL-2 production by OKT3 activated T cells. The assay is described as follows: Lymphocyte assay: IL-2 production by anti-CD3 (OKT3) stimulated T cells. It is filed as cell-based, human. The conditions noted are these: inhibition of IL-2 production, 24 h; for EC50: read-out: Mean EC50; for Mean Log (EC50): log scale. From the text: (§5) Lymphocytes are mononuclear leukocytes, which participate in specific immune responses to foreign antigens and in the manifestation of auto-immune diseases. T lymphocytes produce IL-2, a key factor for lymphocyte activation and proliferation, in response to antigen stimulation via the CD3-T cell receptor complex and the pathway involved in this response is the NF-AT. […] A lymphocyte assay was designed to model this response and to determine the effect of test compound on IL-2 production by anti-CD3-stimulated T cells isolated from peripheral blood. This assay uses a sub-optimal dose of an anti-CD3 monoclonal antibody (OKT3, 25 ng/ml) immobilised to a 96-well plate to stimulate a T cell response. The level of IL-2 released into the cell culture supernatants was quantified using a standard sandwich ELISA. Similarly, other cytokines such as TNFα and IFN-γ can also be measured in the same assay.
(§6) Human peripheral blood mononuclear cells from healthy volunteers were isolated from whole blood by Ficoll-Hypaque density centrifugation and adherence to plastic. The non-adherent lymphocyte fraction was used to set up the lymphocyte assay and the adherent monocytes were then recovered by scraping and subsequently used in the monocyte assay.
(§7) Lymphocytes were then seeded to a 96-well plate pre-coated with anti-CD3 monoclonal antibody (OKT3) at 25 ng/ml and immediately, the test compounds (Peak 1, mixture 1 acid; Peak 1, mixture 2 acid; AH-13205 racemate; PGE2) in appropriate dilutions were added to corresponding wells according to the experimental design. The plate was incubated for 24 hours at 37° C. with 5% CO2 in air and supernatants were recovered for ELISA analysis at the end of incubation period. The levels of IFN-γ was assessed by using the ProteoPlex 16 well human cytokine array assay kit according to the manufacturer's instruction.

Assay [4] has as its system TNFα production by alveolar macrophages. The assay is described as follows: Alveolar macrophage assay: LPS-induced TNFα release. It counts as cell-based, human. To be noted: inhibition of TNFα production, LPS 1 μg/ml, 24 h, mean of three donors. On the procedure: Human lung parenchyma was cut into small pieces and perfused with ice-cold phosphate buffered saline (PBS) to remove contaminating blood and mucus. The tissues were then chopped with scissors in the presence of Minimum Essential Medium supplemented with penicillin, streptomycin, L-glutamine and DNase (0.25 mg/ml). The chopped tissues were shaken gently to dislodge the macrophages. A crude cell suspension was then obtained by the removal of the tissues with a sterile filter (150 μm pore size). The resulting cell suspension was spun and the cell pellet collected. Contaminating red blood cells were depleted with a red blood cell lysis buffer and the remaining cells washed twice with PBS by centrifugation. Alveolar macrophages were then purified from this cell preparation by using a positive selection method for CD14-molecule bearing cells using a VarioMac™ Separator and respective positive selection reagents and columns supplied by Miltenyi Biotec Ltd according to the manufacturer's instruction.
For the assay, alveolar macrophages were resuspended in complete culture medium consisting of RPMI1640 supplemented with 10% foetal calf serum, L-glutamine and antibiotics. The cells were then plated into 24 well plates (4×10^5 cell/well) and incubated overnight at 37° C. with 5% CO2 in air to allow cell adherence. The exhausted medium was then removed from the plates and the plates rinsed briefly with fresh medium before the addition of test compound solutions. The test compounds were incubated with the cells for 30 minutes before the addition of E. Coli LPS (1 μg/ml). The assay plates were incubated in a humidified incubator at 37° C. with 5% CO2 in air for 24 hours. The release of TNFα by the cells into the culture supernatants was quantified using an ELISA kit (DuoSet® human TNFα ELSIA Development System) supplied by R+D Systems (Europe) according to the manufacturer's instruction. Indomethacin at 3 μM was included in all treatments to inhibit the possible release of endogenous prostaglandin E2.

Assay [5] relates to TNFα production by lymphocytes. The assay is described as follows: Lymphocyte assay: TNFα production. It counts as cell-based, human. To be noted: inhibition of TNFα production by lymphocytes, mean of three donors; for EC50: read-out: Mean EC50; for Mean Log (EC50): log scale.
Text: as §5, §6, §7

The subject of another assay is lymphocyte proliferation. The assay is described as follows: Lymphocyte proliferation driven by immobilised anti-CD3 antibody. It counts as cell-based, human. To be noted: inhibition of lymphocyte proliferation, 72 h, mean of three donors; for EC50: read-out: Mean EC50; for Mean Log (EC50): log scale.
Text: as §5, §6
For the measurement of lymphocyte proliferation driven by immobilised anti-CD3 monoclonal antibody, the assay was set up in the same way as for the measurement of IL-2 release, except that the cells were cultured for 72 hours in the presence or absence of test compounds. Four hours prior to the termination of the proliferation assay, a novel tetrazolium compound solution supplied by Promega in the format of Cell Proliferation Assay Kit was added to individual wells according to the manufacturer's instruction. The plate was then placed back in the incubator for the remaining 4 hours and the […] reaction was measured using a spectrophotometer at an absorbent wavelength of 490 nm (SpectraMax, Molecular Devices) according to the manufacturer's instruction.

The subject of assay [6] is human myometrial smooth muscle. The assay is described as follows: Human myometrial activity: inhibition of electrical field stimulation (EFS) induced contractions. It is filed as cell-based. The conditions noted are these: at 10^-4M, n=7 donors. The procedure:
The following describes an in vitro functional assay, using human myometrial smooth muscle, to determine the affinity of the test compounds at the EP2 receptor in human tissues.
Sections of human myometrium were prepared from samples of surgically removed uterus longitudinal myometrial muscle strips (2 mm wide by 10 mm long) were then cut and suspended between stainless steel hooks in organ chambers containing oxygenated (95% O2/5% CO2) Krebs solution at 37° C. The composition of the Krebs solution was as follows: NaCl (118.2 mM), KCl (4.69 mM), MgSO4.7H2O (1.18 mM), KH2PO4 (1.19 mM), glucose (11.1 mM), NaHCO3 (25.0 mM), CaCl2.6H2O (2.5 mM), indomethacin 3×10^−6M.
Tissues were placed under a tension equivalent to 25 mN and left overnight at room temperature. The following day the tissues were maintained at 37° C., washed and placed under a tension of 15 mN then allowed to equilibrate for a period of at least 30 minutes. Responses were recorded using isometric transducers coupled to an Apple Macintosh computer via a MacLab interface. After 60 minutes, the muscle sections of the human myometrium were stimulated electrically (15 ms pulse width, for 10 s every 100 s at 15V and 0.5-40 Hz) using parallel platinum wire electrodes and a Multistim D330 pulse stimulator. Upon electrical stimulation, the strips of human myometrial smooth muscle responded with a rapid contraction. Once the response to electrical stimulation had stabilised (stimulated responses differed by no more than 10%), the strips were exposed to increasing concentrations of test compounds (1×10^−7 to 1×10^−4M, incubated for at least 15 minutes at each concentration). At the end of the experiment, application of sodium nitroprusside (SNP, a nitric oxide donor that causes smooth muscle relaxation) (1×10^−4M) was used to produce a standard relaxatory response. To determine the affinity of the compounds, the concentration of test compound required to produce half-maximal effects (EC50) was calculated, as was the maximum response (calculated as a percentage of the standard response produced with SNP).

Where [7] appears, read: mean of four donors (FIG. 9, table 7).
Setting [8] is: mean of three to five donors (FIG. 10, table 8).

T3 sequence (P43116 whole entry): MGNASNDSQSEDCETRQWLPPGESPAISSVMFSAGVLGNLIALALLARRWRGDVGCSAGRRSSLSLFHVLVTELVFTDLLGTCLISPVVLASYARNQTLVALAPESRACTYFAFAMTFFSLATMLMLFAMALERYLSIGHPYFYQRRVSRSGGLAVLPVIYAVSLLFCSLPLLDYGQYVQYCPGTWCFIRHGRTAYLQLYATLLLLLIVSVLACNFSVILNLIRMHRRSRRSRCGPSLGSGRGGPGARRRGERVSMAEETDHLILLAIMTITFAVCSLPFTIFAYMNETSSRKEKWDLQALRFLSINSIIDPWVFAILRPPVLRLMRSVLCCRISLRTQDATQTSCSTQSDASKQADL
T2 sequence (P35408 whole entry): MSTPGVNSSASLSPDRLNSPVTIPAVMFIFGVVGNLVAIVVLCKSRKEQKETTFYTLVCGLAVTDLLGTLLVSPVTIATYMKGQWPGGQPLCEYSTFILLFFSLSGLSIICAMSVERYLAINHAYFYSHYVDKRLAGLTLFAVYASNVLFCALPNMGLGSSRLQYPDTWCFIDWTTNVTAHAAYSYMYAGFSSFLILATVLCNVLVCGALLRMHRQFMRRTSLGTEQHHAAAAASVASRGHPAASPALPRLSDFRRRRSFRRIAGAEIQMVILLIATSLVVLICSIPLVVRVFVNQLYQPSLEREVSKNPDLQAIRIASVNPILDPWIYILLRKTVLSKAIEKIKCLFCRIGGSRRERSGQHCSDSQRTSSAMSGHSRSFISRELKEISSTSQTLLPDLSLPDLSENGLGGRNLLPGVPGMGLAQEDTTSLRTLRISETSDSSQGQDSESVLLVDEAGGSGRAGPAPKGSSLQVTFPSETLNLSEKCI

Turning to `CCCCC[C@H](O)c1ccc([C@@H]2CCC(=O)[C@H]2CCCCCCC(=O)O)cc1` (single isomer, unassigned) [Peak 2, Mixture 1 acid], the Ki at human EP3 receptor was 15800 nM; on human EP4 receptor, 31600 nM; at human EP2 receptor [1], 1580 nM. Moreover, the EC50 at human EP2 receptor [2] came to 323 nM.
As for `CCCCC[C@@H](O)c1ccc([C@@H]2CCC(=O)[C@H]2CCCCCCC(=O)O)cc1` (single isomer, unassigned) [Peak 2, Mixture 2 acid], the Ki is 20000 nM at human EP3 receptor, 15800 nM on human EP4 receptor and 501 nM at human EP2 receptor [1]. In addition, at human EP2 receptor [2], the EC50 worked out at 407 nM.
In the case of `CCCCC[C@H](O)/C=C/[C@H]1[C@H](O)CC(=O)[C@@H]1C/C=C\CCCC(=O)O` [PGE2, prostaglandin E2], the EC50 in assay [3] (setting [7]) came out at 28 nM; in assay [3] (setting [8]) it was 21.1 nM; in assay [4] (read-out: Mean EC50), 125 nM; in assay [5], 10.7 nM; in the assay on lymphocyte proliferation it was 25.8 nM. Further, the “Mean Log (EC50)” value in [3] (setting [7]) was −7.554; in [3] (setting [8]), −7.677; in assay [4] (log scale), −6.904; in assay [5], −7.971; in the assay on lymphocyte proliferation, −7.589.
As to `CC(C)(C)NCC(O)c1cc(O)cc(O)c1` (stereo not shown) [terbutaline, reference compound], the “% of the control EFS-induced contraction” value in assay [6] came to 98±5%.
As for butaprost, the EC50 in assay [3] (setting [8]) came to 124 nM; in assay [5] it was 292 nM; in the assay with lymphocyte proliferation it was 996 nM. For the same compound, the “Mean Log (EC50)” value in assay [3] (setting [8]) is recorded as −6.906; in [5], −6.535; in the assay with lymphocyte proliferation it was −6.015.

By EC50 is commonly meant the concentration that produces a half-maximal response.
